From ChEMBL document CHEMBL1201862, “PubChem BioAssay data set” (2004)
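Protocol summary: plate cells (96-well), add compound at 5 concentrations, incubate 48 h, interpolate endpoints linearly. GI50 is the concentration that inhibits growth by half.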 Active and inactive are the calls of the source. No stated cut-off is given here; in the data, active = GI50 up to about 1.1 µM and inactive = higher.

What was measured:
Experiment in all cases: NCI-60 cell line screen, 48 h
[1] = test system: NCI-H226
[2] = test system: EKVX
[3] = test system: UO-31
[4] = test system: RPMI-8226
[5] = test system: HOP-92
[6] = test system: M14
[7] = test system: DU-145
[8] = test system: MCF7
[9] = test system: HOP-62
[10] = test system: SK-MEL-28
[11] = test system: SK-MEL-5
[12] = test system: SK-MEL-2
[13] = test system: SK-OV-3
[14] = test system: A549
[15] = test system: TK-10
[16] = test system: UACC-257
[17] = test system: U-251
[18] = test system: Hs-578T
[19] = test system: T47D
[20] = test system: SN12C

Measured: GI50

CCC1c2[nH]c3ccccc3c2C[C@H]2C(=O)NC(Cc3c[nH]c4ccccc34)C(=O)N12 (stereo not given in full)
inactive: [1] 32.7 µM | [2] 32 µM | [3] 27.7 µM | [4] 19.4 µM | [5] 26.5 µM | [6] 21.5 µM | [7] 37.7 µM | [8] 27.3 µM | [9] 24 µM | [10] 33.9 µM | [11] 17.5 µM | [12] 20 µM | [13] 34 µM | [14] 28 µM | [15] 23.2 µM | [16] 19.4 µM | [17] 17.5 µM | [18] 22.6 µM | [19] 26.4 µM | [20] 22.5 µM

Cc1ccc(C)c(NC(=O)NCc2ccc(Cl)cc2)c1
inactive: [1] 38.2 µM | [2] 97.9 µM | [3] 31 µM | [4] 37.2 µM | [5] 18.3 µM | [6] 52.5 µM | [7] > 66.7 µM | [8] 50.2 µM | [9] 9.31 µM | [10] 97.5 µM | [11] > 70.5 µM | [12] > 63 µM | [13] 13.8 µM | [14] > 100 µM | [15] 20.5 µM | [16] 39.7 µM | [17] 17.7 µM | [18] 25.5 µM | [19] 43.7 µM | [20] 36.3 µM

Brc1ccc2c(-c3nc(-c4c[nH]c5ccccc45)cs3)c[nH]c2c1
inactive: [1] 39 µM | [2] 12.7 µM | [3] 19.5 µM | [4] 12.1 µM | [5] 43.1 µM | [6] 51.6 µM | [7] 23.4 µM | [8] 28.8 µM | [9] > 45.8 µM | [10] > 27.8 µM | [11] 22.1 µM | [12] > 61.2 µM | [13] > 100 µM | [14] 9.59 µM | [15] 12.7 µM | [16] 69.2 µM | [17] 35.2 µM | [18] > 100 µM | [19] 30.9 µM | [20] 42.9 µM

Cc1nnc(Sc2nc(C#N)c(C#N)nc2Sc2nnc(C)s2)s1
inactive: [1] 20.8 µM | [2] 19.3 µM | [3] 3.35 µM | [4] 2.5 µM | [5] 2.14 µM | [6] 8.2 µM | [7] 14.9 µM | [8] 5.82 µM | [9] 23.3 µM | [10] 10.5 µM | [11] 20.6 µM | [12] 18.4 µM | [13] 17.2 µM | [14] 22.1 µM | [15] 11.1 µM | [16] 10.4 µM | [17] 19.8 µM | [18] 14.6 µM | [19] 2.54 µM | [20] 9.33 µM

C/C(=N\NC(=S)N1CCN(c2ccccn2)CC1)c1cccc2cccnc12
inactive: [1] 5.77 µM | [2] 3.59 µM | [3] 4.36 µM | [4] 2.29 µM | [5] 3.98 µM | [6] 5.15 µM | [7] 3.56 µM | [8] 3.6 µM | [9] 6.05 µM | [10] 6.58 µM | [11] 2.46 µM | [12] 2.51 µM | [13] 11.4 µM | [14] 5.25 µM | [15] 6.31 µM | [16] 2.84 µM | [17] 4.12 µM | [18] 9.08 µM | [19] 3.68 µM | [20] 4.07 µM

Cn1ccnc1Sc1ccc(/C=N/c2ccc3nc(SCC(=O)NC4CCCCC4)sc3c2)cc1[N+](=O)[O-]
inactive: [1] > 100 µM | [2] > 100 µM | [3] > 100 µM | [4] > 100 µM | [5] 12.1 µM | [6] 38.2 µM | [7] > 100 µM | [8] > 100 µM | [9] 28.4 µM | [10] > 100 µM | [11] > 100 µM | [12] 18.6 µM | [13] 20.2 µM | [14] > 100 µM | [15] 15.6 µM | [16] > 100 µM | [17] 8.09 µM | [18] 18.6 µM | [19] > 100 µM | [20] > 100 µM

COc1cccc2c1C(=O)C1=C(C2=O)C(O)CC(C)(C)O1 (stereo not given)
inactive: [1] > 100 µM | [2] 43.1 µM | [3] 58.9 µM | [4] 22.3 µM | [5] 53.2 µM | [6] 54.6 µM | [7] > 100 µM | [8] 36.6 µM | [9] > 100 µM | [10] > 100 µM | [11] 14.4 µM | [12] 36.2 µM | [13] > 100 µM | [14] 32.1 µM | [15] > 100 µM | [16] 22.4 µM | [17] 32.4 µM | [18] > 100 µM | [19] 49.8 µM | [20] 32.5 µM

NCCCC(N)C(=O)O (stereo not given)
inactive: [1] 77.8 µM | [2] > 100 µM | [3] > 100 µM | [4] > 100 µM | [5] > 100 µM | [6] > 100 µM | [7] > 100 µM | [8] > 100 µM | [9] > 100 µM | [10] > 100 µM | [11] > 100 µM | [12] > 100 µM | [13] > 100 µM | [14] > 100 µM | [15] > 100 µM | [16] > 100 µM | [17] > 100 µM | [18] > 100 µM | [19] > 100 µM | [20] > 100 µM

CN(C)CCCOCCn1c2c(c3ccccc31)CCCC2
inactive: [1] 29.6 µM | [2] 21.9 µM | [3] 17.1 µM | [4] 15.9 µM | [5] 13.2 µM | [6] 15.7 µM | [7] 27.9 µM | [8] 16.4 µM | [9] 14.7 µM | [10] 16.6 µM | [11] 12.7 µM | [12] 13.4 µM | [13] > 10 µM | [14] 17 µM | [15] 18.4 µM | [16] 18.2 µM | [17] 17.9 µM | [18] 19.7 µM | [19] 23.2 µM | [20] 16.9 µM

O=C(NN=C1NCCN1)c1ccco1
inactive: [1] 62.4 µM | [2] > 100 µM | [3] > 100 µM | [4] > 100 µM | [5] > 100 µM | [6] > 100 µM | [7] > 100 µM | [8] > 100 µM | [9] > 100 µM | [10] > 100 µM | [11] > 100 µM | [12] > 100 µM | [13] > 100 µM | [14] > 100 µM | [15] > 100 µM | [16] > 100 µM | [17] > 100 µM | [18] > 100 µM | [19] > 100 µM | [20] > 100 µM

CC(=O)OC(C#N)CC(C)(C)/[N+]([O-])=[N+](\[O-])C(C)(C)CC(C#N)OC(C)=O (stereo not given)
inactive: [1] 20.7 µM | [2] 16.7 µM | [3] 19.5 µM | [4] 15.8 µM | [5] 12.3 µM | [6] 14.4 µM | [7] 18 µM | [8] 8.83 µM | [9] 17.8 µM | [10] 26 µM | [11] 16.1 µM | [12] 24.3 µM | [13] > 100 µM | [14] 30.1 µM | [15] 15.9 µM | [16] 16.9 µM | [17] 15.8 µM | [18] 17.3 µM | [19] 15.5 µM | [20] 12.9 µM

O=C1NC(=O)/C(=C/c2ccc(S(=O)(=O)N/N=C/c3ccc(Cl)cc3)cc2)N1
inactive: [1] > 100 µM | [2] > 100 µM | [3] > 100 µM | [4] > 100 µM | [5] 78.5 µM | [6] > 100 µM | [7] > 100 µM | [8] > 100 µM | [9] > 100 µM | [10] > 100 µM | [11] > 100 µM | [12] > 100 µM | [13] > 100 µM | [14] > 100 µM | [15] > 100 µM | [16] > 100 µM | [17] > 100 µM | [18] > 100 µM | [19] > 100 µM | [20] > 100 µM

CC(=O)NS(=O)(=O)c1ccc(NCc2cccc3c(=O)c4ccc(Cl)cc4oc23)cc1
inactive: [1] 93.3 µM | [2] 38.3 µM | [3] 25.4 µM | [4] 11.2 µM | [5] 16.6 µM | [6] 41.1 µM | [7] 61 µM | [8] 8.3 µM | [9] 39.1 µM | [10] 73.8 µM | [11] 40.1 µM | [12] 46 µM | [13] > 53.8 µM | [14] > 80.9 µM | [15] > 63.4 µM | [16] > 56.6 µM | [17] 31.6 µM | [18] 25.4 µM | [19] > 92.3 µM | [20] > 65.6 µM

CC1=[N+](C)CCCN1C
inactive: [1] > 100 µM | [2] > 100 µM | [3] > 100 µM | [4] > 100 µM | [5] > 100 µM | [6] > 100 µM | [7] > 100 µM | [8] > 100 µM | [9] > 100 µM | [10] > 100 µM | [11] > 100 µM | [12] > 100 µM | [13] > 100 µM | [14] > 100 µM | [15] > 100 µM | [16] > 100 µM | [17] > 100 µM | [18] > 100 µM | [19] > 100 µM | [20] > 100 µM
